Test results taken from patent publication US20160008470A1, “STORAGE-STABLE COMPOSITIONS OF GLYCEROL MONOALKYL ETHERS” (AIR LIQUIDE SANTE (INTERNATIONAL), priority 2000, published 2016).
Counter-ions that a name gives are not always drawn.

What was measured:
[1] = Peroxide number (PON) by titration with sodium thiosulphate; type: physicochemical; conditions: for peroxide number as a function of time: Example 2, salt solution added to Sensiva SC 50
Procedure: The peroxide number (PON) gives the amount peroxide in milliequivalents of active oxygen which is present in 1000 g of substance, determined in accordance with the method below. • 5.00 g of substance are weighed into a 250 ml Erlenmeyer flask with ground-glass stopper and dissolved in 30 ml of a mixture of 2 parts by volume of chloroform R and 3 parts by volume of acetic acid 98% R with shaking. […] Following the addition of 5 ml of starch solution R, the titration is continued with vigorous shaking until the blue coloration disappears (n1 ml of 0.01 N sodium thiosulphate solution). A control experiment is carried out under the same conditions (n2 ml of 0.01 N sodium thiosulphate solution). For this, at most 0.1 ml of 0.01 N sodium thiosulphate solution must be consumed.
The peroxide number is calculated as follows: […]
where m is the initial weight of the substance in grams.
The method is explained in more detail in DAB 9-Kornrnentar [German Pharmacopoeia 9 Commentary] (K. Hartke, E. Mutschler, Editor, Wissenschaftliche Verlagsgesellschaft mbH Stuttgart, 9th edition 1986).
(§1) The peroxide number of compositions of Sensiva® SC 50 and Lipacide e8G salts was compared with the stability of mixtures of Sensiva® SC 50 and other 30 salts.

Hazen colour number = type: physicochemical
[2] = Appearance of the storage bottle (neck-in effect); type: physicochemical; conditions: for Appearance of the bottle: Example 1, storage at room temperature
Procedure: (§2) Following preparation of the samples, the value for ppm of H2O2 and the pH were determined at regular intervals.

[3] = Appearance of the composition; type: physicochemical
Excerpt: n.c.=no change, d.=days, m.=months, w.=weeks, y.=years, n.d.=not detectable, cl=clear, c=colourless, kr=crystals, yl=yellowish, S.=start of the investigation.
as §1

[4] = Merckoquant peroxide test (ppm of H2O2) during storage at room temperature; conditions: for ppm of H2O2: storage at room temperature; for stabilizing effect: 0.05% by weight of the antioxidant; for stabilization of the glycerol monoalkyl ethers over a long period (peroxides, neck-in effect): added to Sensiva SC 50, storage at room temperature, Table 1
Procedure: The data in “ppm of H2O2” refer to the peroxide determination using Merckoquant® peroxide test analysis strips. This semiquantitative method for determining peroxide was carried out as follows: • About 0.5 g of the sample to be investigated is placed in a test tube and treated with the same amount of demineralized water. The two phases are mixed by shaking, and a Merckoquant® peroxide test analysis strip is dipped in for one second. The damp strip is removed from the liquid and the peroxide content is read off after 15 seconds using the reference scale and noted. If the peroxide content is too high, the amount is doubled with demineralized water, again shaken etc., until a reading is possible using the reference scale. The value obtained is back-calculated using the dilution.
as §2

[5] = pH of 50% strength slurry in demineralized water, Merck pH indicator strips; type: physicochemical; conditions: storage at room temperature
Excerpt: The pH of the anhydrous solutions is given as the value which a 50% strength slurry of the respective anhydrous solution in demineralized water has, determined using Merck® pH indicator strips.

[6] = Example 2, start of the investigation
[7] = Example 2, after storage, time not printed (line below the 2 y. 2 m. lines)

CCCCC(CC)COCC(O)CO (stereo not shown) [Experiment A, 3-[(2-ethylhexyl)oxy]-1,2-propanediol]
PON 2 y. 11 m. ([1]; Example 1, storage at room temperature, 2 y. 11 m., n.d.=not detectable): 25.3 milliequivalents of active oxy
PONS. [1, 6]: 10 milliequivalents of active oxy
PON ([1]; Example 2, storage 2 y. 2 m.): 5-10 milliequivalents of active oxy
PON ([1]; Example 2, storage 6 m.): 20 milliequivalents of active oxy
PON ([1]; Example 2, storage 6 w.): 25 milliequivalents of active oxy
PON ([1]; Example 2, storage 11 w.): 25 milliequivalents of active oxy
PON ([1]; Example 2, storage 4 d.): 10 milliequivalents of active oxy
PON ([1]; Example 2, storage 9 d.): 10-25 milliequivalents of active oxy
Hazen colour number (Hazen colour number; Example 1, storage at room temperature, 8 w.): <5
Hazen colour number (Hazen colour number; [7]): 0
Appearance of the bottle ([2]; 2 y. 11 m., listed as A): consider-
Appearance of the bottle ([2]; 2 y., listed as A): neck in
PE bottle ([2]; Example 2, storage 2 y. 2 m.): considerable
Appearance [3, 7]: cl c
Appearance S. [3, 6]: cl c
development of the peroxide content in stored preparations ([4]; Table 1, storage): chaotic development of the peroxide number
ppm of H2O2 ([4]; 2 m., listed as A): 2-5 ppm
ppm of H2O2 ([4]; 2 w., listed as A): 2-5 ppm
ppm of H2O2 ([4]; 2 y., listed as A): 10-25 ppm
ppm of H2O2 ([4]; 3 m., listed as A): 2-5 ppm
ppm of H2O2 ([4]; 4 m., listed as A): 5 ppm
ppm of H2O2 ([4]; 5 m., listed as A): 5 ppm
ppm of H2O2 ([4]; 6.5 m., listed as A): 5 ppm
ppm of H2O2 ([4]; 7 w., listed as A): 2-5 ppm
ppm of H2O2 ([4]; 8 w., listed as A): 2-5 ppm
ppm of H2O2 ([4]; 8.5 m., listed as A): 5 ppm
ppm of H2O2 ([4]; 11 m., listed as A): 10 ppm
ppm of H2O2 ([4]; 7 d., listed as A): 2 ppm
ppm of H2O2 ([4]; 9 d., listed as A): 2 ppm

O=S(=O)([O-])[O-].[Na+].[Na+] [sodium sulphate]
peroxide number as a function of time [1]: could not be achieved

Cc1c(C)c2c(c(C)c1O)CC[C@@](C)(CCC[C@H](C)CCC[C@H](C)CCCC(C)C)O2 [vitamin E, Alpha-tocopherol]
stabilizing effect [4]: exhibit the stabilizing effect
stabilization of the glycerol monoalkyl ethers over a long period (peroxides, neck-in effect) [4]: stabilize the glycerol monoalkyl ethers over a long period

CCCCC(CC)COCC(O)CO (stereo not shown) [Experiment A(Alu), 3-[(2-ethylhexyl)oxy]-1,2-propanediol]
pH ([5]; 2 m.): 3
pH ([5]; 2 w.): 3
pH ([5]; 3 w.): 3
pH ([5]; 4 w.): 3
pH ([5]; 5 w.): 3
pH ([5]; 6 w.): 3
pH ([5]; 7 w.): 3
pH ([5]; 8 w.): 3
pH ([5]; 7 d.): 3
pH ([5]; 9 d.): 3
PON S. ([1]; Example 1, start of the investigation): 0.5 milliequivalents of active oxy
Appearance of the bottle ([2]; 2 y. 11 m., listed as A(Alu)): n.c.
Appearance of the bottle ([2]; 2 y., listed as A(Alu)): n.c.
ppm of H2O2 ([4]; 1 y.): 10 ppm
ppm of H2O2 ([4]; 2 m., listed as A(Alu)): 25 ppm
ppm of H2O2 ([4]; 2 w., listed as A(Alu)): 2 ppm
ppm of H2O2 ([4]; 2 y., listed as A(Alu)): 0 ppm
ppm of H2O2 ([4]; 3 m., listed as A(Alu)): 25-50 ppm
ppm of H2O2 ([4]; 3 w.): 2-5 ppm
ppm of H2O2 ([4]; 4 m., listed as A(Alu)): 25-50 ppm
ppm of H2O2 ([4]; 4 w.): 2-5 ppm
ppm of H2O2 ([4]; 5 m., listed as A(Alu)): 50 ppm
ppm of H2O2 ([4]; 5 w.): 2-5 ppm
ppm of H2O2 ([4]; 6 w.): 2-5 ppm
ppm of H2O2 ([4]; 6.5 m., listed as A(Alu)): 50 ppm
ppm of H2O2 ([4]; 7 w., listed as A(Alu)): 5 ppm
ppm of H2O2 ([4]; 8 w., listed as A(Alu)): 5 ppm
ppm of H2O2 ([4]; 8.5 m., listed as A(Alu)): 25-50 ppm
ppm of H2O2 ([4]; 11 m., listed as A(Alu)): 10-25 ppm
ppm of H2O2 ([4]; 14 m.): 10 ppm
ppm of H2O2 ([4]; 16 m.): 10 ppm
ppm of H2O2 ([4]; 7 d., listed as A(Alu)): 0.5 ppm
ppm of H2O2 ([4]; 9 d., listed as A(Alu)): 0.5-1 ppm

COc1ccc(O)c(C(C)(C)C)c1 [BHA, 3-tert-butyl-4-hydroxyanisole]
stabilizing effect [4]: exhibit the stabilizing effect
stabilization of the glycerol monoalkyl ethers over a long period (peroxides, neck-in effect) [4]: stabilize the glycerol monoalkyl ethers over a long period

CCCCCCCC(=O)NCC(=O)O [Lipacide C8G sodium salts, N-octanoylglycine]
peroxide number as a function of time [1]: the peroxide number decreases as a function of time
neck-in effect ([2]; Example 2, salt solution added to Sensiva SC 50): the neck-in effect is avoided

Cc1cc(C(C)(C)C)c(O)c(C(C)(C)C)c1 [BHT, 2,6-di-tert-butyl-p-cresol]
stabilizing effect [4]: exhibit the stabilizing effect
stabilization of the glycerol monoalkyl ethers over a long period (peroxides, neck-in effect) [4]: stabilize the glycerol monoalkyl ethers over a long period

CC(C)(CO)[C@@H](O)C(=O)NCCCO [dexpanthenol]
stabilizing effect [4]: exhibit the stabilizing effect
stabilization of the glycerol monoalkyl ethers over a long period (peroxides, neck-in effect) [4]: stabilize the glycerol monoalkyl ethers over a long period

CCCCCCCCCCCCCCCC(=O)OC[C@H](O)[C@H]1OC(=O)C(O)=C1O [ascorbyl palmitate, 6-0-palmitoyl-L-ascorbic acid]
effect on stabilization of the glycerol monoalkyl ether by vitamin E ([4]; Experiments N and O): inhibit its stabilization by vitamin E
stabilization of the glycerol monoalkyl ethers over a long period (peroxides, neck-in effect) [4]: does not stabilize the glycerol monoalkyl ethers

O=C([O-])CC(O)(CC(=O)[O-])C(=O)[O-].[Na+].[Na+].[Na+] [sodium citrate]
peroxide number as a function of time [1]: could not be achieved
